In this assay the target is 5-hydroxytryptamine receptor 2C (Homo sapiens) (UniProt P28335). The experiment in a line: Antagonist activity at human 5HT2C receptor expressed in CHO cells assessed as inhibition of 5-HT-stimulated [35S]GTPgamma binding.

Each structure is given as a SMILES string.

5-hydroxytryptamine receptor 2C (Homo sapiens), sequence (P28335 whole entry, looked up): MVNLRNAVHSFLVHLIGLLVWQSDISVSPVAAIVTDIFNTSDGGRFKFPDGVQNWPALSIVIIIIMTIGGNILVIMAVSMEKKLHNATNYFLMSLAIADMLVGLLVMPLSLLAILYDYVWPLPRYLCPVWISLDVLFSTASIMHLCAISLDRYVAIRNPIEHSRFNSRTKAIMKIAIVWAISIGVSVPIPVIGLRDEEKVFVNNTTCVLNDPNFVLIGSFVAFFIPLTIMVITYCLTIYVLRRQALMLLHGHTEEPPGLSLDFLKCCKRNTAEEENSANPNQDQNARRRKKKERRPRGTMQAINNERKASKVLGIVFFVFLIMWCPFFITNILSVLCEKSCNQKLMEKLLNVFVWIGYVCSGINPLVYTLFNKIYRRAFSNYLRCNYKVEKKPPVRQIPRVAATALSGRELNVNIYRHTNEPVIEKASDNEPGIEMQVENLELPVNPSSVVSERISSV

With `CC(C)N(c1cccc(N2CCN(C)CC2)c1)S(=O)(=O)c1ccc2ccccc2c1`, the inhibition entry was “Dose-dependent effect”.

These data come from ChEMBL document CHEMBL1221248, “Synthesis and SAR of (piperazin-1-yl-phenyl)-arylsulfonamides: a novel series of atypical antipsychotic agents” (Bioorg Med Chem Lett, 2010).
